The results in this text go back to patent publication US6960614B2, “Oxygenated esters of 4-lodo phenylamino benzhydroxamic acids” (Warner-Lambert Company, priority 2000, dated 2005).

Data set [1] has as its system MEK. Kind of data set: Cellular Assay for Measuring MEK Inhibition (inhibition of ERK phosphorylation in C26 cells, Western blot). The class given is cell-based, murine. The note with it: for IC50: inhibition of ERK phosphorylation in murine colon 26 (C26) carcinoma cells, determined graphically from dose response curve; for % Inhibition @ 1 μM / % Inhibition @ 10 μM / % Inhibition @ 0.1 μM: ERK phosphorylation in C26 cells. A digest of the protocol:
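Read-out is phospho-ERK1/2 by Western blot, normalized against total ERK1/2 after stripping and re-probing. Murine C26 colon carcinoma cells in exponential growth were exposed to a range of compound concentrations at 37° C before lysis.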
(In general: In western blotting, separated proteins are transferred to a membrane and probed.)

As to `O=C(NOC[C@@H]1C[C@H]1CO)c1ccc(F)c(F)c1Nc1ccc(I)cc1F` (relative stereo) [Example 74, 3,4-Difluoro-2-(2-fluoro-4-iodo-phenylamino)-N-[trans-(2-hydroxymethyl-cyclopropylmethoxy)]-benzamide], the melting point (as a rule, the temperature of the solid-liquid transition) was in the range of 128.5 to 128.7 °C. Moreover, the IC50 (in general, the concentration at which inhibition is half-maximal) in data set [1] was found to be 18 nM.

`O=C(NOC[C@@H]1C[C@H]1CO)c1cc(Cl)c(F)c(F)c1Nc1ccc(I)cc1F` (relative stereo) [Example 75, 5-Chloro-3,4-difluoro-2-(2-fluoro-4-iodo-phenylamino)-N-[trans-(2-hydroxymethyl-cyclopropylmethoxy)]-benzamide] displayed a melting point of 152.5 to 153.1 °C. In data set [1], this molecule came in with an IC50 of 42 nM.

Regarding `Cc1cc(I)ccc1Nc1c(C(=O)NOCCO)cc(F)c(F)c1F` [Example 1, 3,4,5-Trifluoro-N-(2-hydroxy-ethoxy)-2-(4-iodo-2-methyl-phenylamino)-benzamide], the melting point was 205 to 207 °C (dec.). The molecule further registered an IC50 in data set [1] of 8 nM.

In the case of `Cc1cc(I)ccc1Nc1c(C(=O)NOCCO)ccc(F)c1F` [Example 2, 3,4-Difluoro-N-(2-hydroxy-ethoxy)-2-(4-iodo-2-methyl-phenylamino)-benzamide], the melting point was 181 to 183 °C. In addition, the IC50 in data set [1] came out at 3 nM. In the case of `O=C(NOCCO)c1ccc(F)c(F)c1Nc1ccc(I)cc1Cl` [Example 3, 2-(2-Chloro-4-iodo-phenylamino)-3,4-difluoro-N-(2-hydroxy-ethoxy)-benzamide], the melting point was 173 to 175 °C. For the same molecule, in data set [1], the IC50 is 4 nM. In turn, `O=C(NOCCO)c1cc(F)c(F)cc1Nc1ccc(I)cc1F` [Example 18, 4,5-Difluoro-2-(2-fluoro-4-iodo-phenylamino)-N-(2-hydroxy-ethoxy)-benzamide] returned a melting point of 189.6 to 190.6 °C. Same read-out and setting: for `O=C(NOCCCO)c1cc(Br)c(F)c(F)c1Nc1ccc(I)cc1Cl` [Example 31, 5-Bromo-2-(2-chloro-4-iodo-phenylamino)-3,4-difluoro-N-(3-hydroxy-propoxy)-benzamide] the value was 120 to 121 °C.

On to `C=COCCONC(=O)c1ccc(F)c(F)c1Nc1ccc(I)cc1Cl` [Example 56, 2-(2-Chloro-4-iodo-phenylamino)-3,4-difluoro-N-(2-vinyloxy-ethoxy)-benzamide], for which the melting point lay within 141.5 to 143 °C. Still for that read-out and setting: for `C=COCCONC(=O)c1cc(Cl)c(F)c(F)c1Nc1ccc(I)cc1F` [Example 60, 5-Chloro-3,4-difluoro-2-(2-fluoro-4-iodo-phenylamino)-N-(2-vinyloxy-ethoxy)-benzamide] the value was 119 to 120 °C.

Regarding `O=C(NOCC(O)CO)c1cc(Br)c(F)c(F)c1Nc1ccccc1F` (stereo not drawn) [Example 84, 5-Bromo-N-(2,3-dihydroxy-propoxy)-3,4-difluoro-2-(2-fluoro-phenylamino)-benzamide], the melting point lay in the range of 143.5 to 144.5 °C. Regarding `O=C(NOCC1CC1CO)c1cc(Cl)c(F)c(F)c1Nc1ccc(F)cc1F` (stereo not drawn) [Example 214, 5-Chloro-2-(2,4-difluoro-phenylamino)-3,4-difluoro-N-(2-hydroxymethyl-cyclopropylmethoxy)-benzamide], in data set [1], the “% Inhibition @ 1 μM” value is reported as 15.4% and the “% Inhibition @ 10 μM” value is on record as 38.2%. The corresponding values for `O=C(NOCC1CC1CO)c1ccc(F)c(F)c1Nc1ccc(F)cc1F` (stereo not drawn) [Example 215, 2-(2,4-Difluoro-phenylamino)-3,4-difluoro-N-(2-hydroxymethyl-cyclopropylmethoxy)-benzamide] are 11.7% and 84.8%. For the molecule `O=C(NOCC1CC1CO)c1ccc(F)c(F)c1Nc1ccc(Cl)cc1F` (stereo not drawn) [Example 216, 2-(4-Chloro-2-fluoro-phenylamino)-3,4-difluoro-N-(2-hydroxymethyl-cyclopropylmethoxy)-benzamide], in data set [1], the “% Inhibition @ 0.1 μM” value is recorded as 41.2% and the “% Inhibition @ 1 μM” value is recorded as 87.6%. The corresponding values for `O=C(NOCC1CC1CO)c1cc(F)c(F)cc1Nc1ccc(I)cc1F` (stereo not drawn) [Example 217, 4,5-Difluoro-2-(2-fluoro-4-iodo-phenylamino)-N-(2-hydroxymethyl-cyclopropylmethoxy)-benzamide] are 26.9% and 93.1%. In the case of `O=C(NOCC1(CO)CC1)c1ccc(F)c(F)c1Nc1ccc(I)cc1F` [Example 218, 3,4-Difluoro-2-(2-fluoro-4-iodo-phenylamino)-N-(1-hydroxymethyl-cyclopropylmethoxy)-benzamide], in data set [1], the “% Inhibition @ 0.1 μM” value stood at 87% and the “% Inhibition @ 1 μM” value was found to be 96.9%. Turning to `O=C(NOCC1(CO)CC1)c1cc(F)c(F)c(F)c1Nc1ccc(I)cc1F` [Example 219, 3,4,5-Trifluoro-2-(2-fluoro-4-iodo-phenylamino)-N-(1-hydroxymethyl-cyclopropylmethoxy)-benzamide], in data set [1], the “% Inhibition @ 0.1 μM” value is on record as 65.3% and the “% Inhibition @ 1 μM” value is 96.2%.

In the case of `O=C(NOCC1(CO)CC1)c1cc(Br)c(F)c(F)c1Nc1ccc(I)cc1F` [Example 220, 5-Bromo-3,4-difluoro-2-(2-fluoro-4-iodo-phenylamino)-N-(1-hydroxymethyl-cyclopropylmethoxy)-benzamide], in data set [1], the “% Inhibition @ 0.1 μM” value is recorded as 35.4% and the “% Inhibition @ 1 μM” value is 88.8%. The corresponding values for `O=C(NOCC1(CO)CC1)c1cc(F)c(F)cc1Nc1ccc(I)cc1F` [Example 221, 4,5-Difluoro-2-(2-fluoro-4-iodo-phenylamino)-N-(1-hydroxymethyl-cyclopropylmethoxy)-benzamide] are 46% and 92.4%.

As for `O=C(NOCC1(CO)CC1)c1ccc(F)c(F)c1Nc1ccc(F)cc1F` [Example 222, 2-(2,4-Difluoro-phenylamino)-3,4-difluoro-N-(1-hydroxymethyl-cyclopropylmethoxy)-benzamide], in data set [1], the “% Inhibition @ 1 μM” value was 9.6% and the “% Inhibition @ 10 μM” value was 55.6%. As to `O=C(NOCC1(CO)CC1)c1ccc(F)c(F)c1Nc1ccc(Br)cc1F` [Example 223, 2-(4-Bromo-2-fluoro-phenylamino)-3,4-difluoro-N-(1-hydroxymethyl-cyclopropylmethoxy)-benzamide], in data set [1], the “% Inhibition @ 0.1 μM” value is 5.2% and the “% Inhibition @ 1 μM” value is 56.7%. For `O=C(NOCC1(CO)CC1)c1ccc(F)c(F)c1Nc1ccc(Cl)cc1F` [Example 224, 2-(4-Chloro-2-fluoro-phenylamino)-3,4-difluoro-N-(1-hydroxymethyl-cyclopropylmethoxy)-benzamide] the same measures were 0% and 18.1%. Regarding `O=C(NOCC1(CO)CC1)c1cc(Cl)c(F)c(F)c1Nc1ccc(F)cc1F` [Example 225, 5-Chloro-2-(2,4-difluoro-phenylamino)-3,4-difluoro-N-(1-hydroxymethyl-cyclopropylmethoxy)-benzamide], in data set [1], the “% Inhibition @ 0.1 μM” value is recorded as 0%, the “% Inhibition @ 1 μM” value was determined as 8.7% and the “% Inhibition @ 10 μM” value is on record as 36.9%. In the case of `COCC(O)CONC(=O)c1ccc(F)c(F)c1Nc1ccc(F)cc1F` (stereo not drawn) [Example 226, 2-(2,4-Difluoro-phenylamino)-3,4-difluoro-N-(2-hydroxy-3-methoxy-propoxy)-benzamide], in data set [1], the “% Inhibition @ 1 μM” value is on record as 41.5% and the “% Inhibition @ 10 μM” value is reported as 84.1%. The corresponding values for `COCC(O)CONC(=O)c1cc(Cl)c(F)c(F)c1Nc1ccc(F)cc1F` (stereo not drawn) [Example 227, 5-Chloro-2-(2,4-difluoro-phenylamino)-3,4-difluoro-N-(2-hydroxy-3-methoxy-propoxy)-benzamide] are 24.2% and 63%.

Regarding `COCC(O)CONC(=O)c1ccc(F)c(F)c1Nc1ccc(Br)cc1F` (stereo not drawn) [Example 228, 2-(4-Bromo-2-fluoro-phenylamino)-3,4-difluoro-N-(2-hydroxy-3-methoxy-propoxy)-benzamide], in data set [1], the “% Inhibition @ 0.1 μM” value came to 48.6% and the “% Inhibition @ 1 μM” value turned out to be 92.4%. The corresponding values for `COCC(O)CONC(=O)c1ccc(F)c(F)c1Nc1ccc(Cl)cc1F` (stereo not drawn) [Example 229, 2-(4-Chloro-2-fluoro-phenylamino)-3,4-difluoro-N-(2-hydroxy-3-methoxy-propoxy)-benzamide] are 9.8% and 76.5%. On to `Cc1cc(I)ccc1Nc1c(C(=O)NOCCNc2ccccc2)cc(F)c(F)c1F` [Example 230, 3,4,5-Trifluoro-2-(4-iodo-2-methyl-phenylamino)-N-(2-phenylamino-ethoxy)-benzamide], for which the IC50 in data set [1] is 51 nM.

Turning to `Cc1cc(I)ccc1Nc1c(C(=O)NOCCNc2ccccc2)cc(Br)c(F)c1F` [Example 231, 5-Bromo-3,4-difluoro-2-(4-iodo-2-methyl-phenylamino)-N-(2-phenylamino-ethoxy)-benzamide], in data set [1], the IC50 amounted to 67 nM.

For `O=C(NOCCNc1ccccc1)c1ccc(F)c(F)c1Nc1ccc(I)cc1Cl` [Example 232, 2-(2-Chloro-4-iodo-phenylamino)-3,4-difluoro-N-(2-phenylamino-ethoxy)-benzamide], the IC50 in data set [1] came out at 22 nM. Still for that read-out and setting: for `O=C(NOCCNc1ccccc1)c1cc(F)c(F)c(F)c1Nc1ccc(I)cc1Cl` [Example 233, 2-(2-Chloro-4-iodo-phenylamino)-3,4,5-trifluoro-N-(2-phenylamino-ethoxy)-benzamide] the value was 33 nM; for `Cc1cc(I)ccc1Nc1c(C(=O)NOCCNc2ccccc2)ccc(F)c1F` [Example 234, 3,4-Difluoro-2-(4-iodo-2-methyl-phenylamino)-N-(2-phenylamino-ethoxy)-benzamide], 54 nM; for `O=C(NOCCNc1ccccc1)c1cc(Br)c(F)c(F)c1Nc1ccc(I)cc1Cl` [Example 235, 5-Bromo-2-(2-chloro-4-iodo-phenylamino)-3,4-difluoro-N-(2-phenylamino-ethoxy)-benzamide], 62 nM.
